From patent publication US7811352B2, “Fertilizer compositions and methods of using” (priority 2005, dated 2010)

Assays:
[1] = test system: Pennlinks creeping bentgrass maintained as a golf fairway; assay: Turfgrass quality rating, fairway creeping bentgrass (Example 15); type: in vivo; settings: scale of 1-9
Description: (§1) In this Example, the effect of a fertilizer comprising lysine on cool season fairway turfgrass growth was examined. The effects of lysine (HCl) and LIQUID LYSINE on a common type of golf course fairway variety turfgrass (Pennlinks creeping bentgrass maintained as a golf fairway) were compared with those of urea, Milorganite and a blended fertilizer (a blend of methylene urea and urea in an approximately 1:1 ratio).
Fifteen fertilizer treatments comprising three concentrations of each fertilizer composition (Milorganite (N—P—K, 6-2-0), urea (N—P—K, 46-0-0), a blended fertilizer, LIQUID LYSINE (N—P—K, 10-2-1), and lysine (HCl) (N—P—K, 15-2-1)) were prepared and applied to 3 replications of a well established Pennlinks creeping bentgrass maintained as a golf fairway grass. The urea, lysine (HCl), and LIQUID LYSINE were dissolved/suspended in 1.5 gal water prior to application. […] The urea, LIQUID LYSINE and lysine (HCl) were applied as foliar liquids, while Milorganite and the blended fertilizer were applied as granular fertilizers. Plot size was 4 ft×8 ft laid out in a replicated complete block design. Plots were mowed at 0.5 inches before fertilizer application and mowed three times per week to 0.5 inch height. Grass clippings were not removed from the plots and no supplemental cultural maintenance was applied. Irrigation (0.15 inch) was applied following application and every other day thereafter. Plots were rated for turfgrass quality (scale of 1-9 where 9=dark green turf, 1=dead/brown turf, and 6=minimally acceptable turf and phytotoxic injury (scale of 0-9 where 9=significant foliar injury and 2=minimally objectional foliar injury) throughout the study period. Quality was measured prior to application (day 0) and day 37, day 70 and day 95 after application. Injury was measured on day 37, day 70 and day 95 after application. All data was subject to statistical analysis and significant means were determined. Average turfgrass quality ratings for the treatments are presented in Table 24.

[2] = test system: Moonlight Kentucky bluegrass; assay: Blade density rating, Kentucky bluegrass lawn (Example 17); type: in vivo; settings: Day 70
Description: as §1, with “lawn variety” for “fairway”, “variety” for “type”, “law” for “golf course fairway variety”, “(Moonlight Kentucky bluegrass)” for “(Pennlinks creeping bentgrass maintained as a golf fairway)”
Fifteen fertilizer treatments comprising three concentrations of each fertilizer composition (Milorganite N—P—K, 6-2-0), urea (N—P—K, 46-0-0), a blended fertilizer, LIQUID LYSINE (N—P—K, 10-2-1), and lysine (HCl) (N—P—K, 15-2-1)) were prepared and applied to 3 replications of newly established “Moonlight” variety Kentucky bluegrass lawn turfgrass. The urea, lysine (HCl), and LIQUID LYSINE were dissolved/suspended in 1.5 gal water prior to application. […], 1.0 lb N/1000 ft^2/year and 3.0 lb N/1000 ft^2/year, The urea, LIQUID LYSINE and lysine (HCl) were applied as foliar liquids, while Milorganite and the blended fertilizer were applied as granular fertilizers. Plot size was 4 ft×8 ft laid out in a replicated complete block design. Plots were mowed at 2.0 inches before fertilizer application and mowed two times per week to 2.0 inch height. Grass clippings were not removed from the plots and no supplemental cultural maintenance or pest management was applied. Irrigation (0.15 inch) was applied following application and thereafter only when necessary to insure survival of the turf. Plots were rated for turfgrass quality (scale of 1-9 where 9=dark green turf, 1=dead/brown turf, and 6=minimally acceptable turf) and phytotoxic injury (scale of 0-9 where 9=significant foliar injury and 2=minimally objectionable foliar injury) throughout the study period. Quality was measured prior to application (day 0) and day 37, day 70 and day 95 after application. Injury was measured on day 37 and day 70 after application. In addition, blade density of the grass was measured on day 70 after application (scale of 1-9, where 9=very dense turf, 1=low density turf). All data was subject to statistical analysis and significant means were determined.

[3] = Weekly Rate 0.5 lbs N/1000 ft^2, Day 0
[4] = Weekly Rate 0.5 lbs N/1000 ft^2, Day 37
[5] = Weekly Rate 0.5 lbs N/1000 ft^2, Day 70
[6] = Weekly Rate 0.5 lbs N/1000 ft^2, Day 95
[7] = Weekly Rate 1.0 lbs N/1000 ft^2, Day 0
[8] = Weekly Rate 1.0 lbs N/1000 ft^2, Day 37
[9] = Weekly Rate 1.0 lbs N/1000 ft^2, Day 70
[10] = Weekly Rate 1.0 lbs N/1000 ft^2, Day 95
[11] = Weekly Rate 3.0 lbs N/1000 ft^2, Day 0
[12] = Weekly Rate 3.0 lbs N/1000 ft^2, Day 37
[13] = Weekly Rate 3.0 lbs N/1000 ft^2, Day 70
[14] = Weekly Rate 3.0 lbs N/1000 ft^2, Day 95
[15] = Weekly Rate 0.5 lbs N/1000 ft^2
[16] = Weekly Rate 1.0 lbs N/1000 ft^2
[17] = Weekly Rate 3.0 lbs N/1000 ft^2

Compound | Quality Rating - Fairway Bentgrass [1, 3] | Quality Rating - Fairway Bentgrass [1, 4] | Quality Rating - Fairway Bentgrass [1, 5] | Quality Rating - Fairway Bentgrass [1, 6] | Quality Rating - Fairway Bentgrass [1, 7] | Quality Rating - Fairway Bentgrass [1, 8] | Quality Rating - Fairway Bentgrass [1, 9] | Quality Rating - Fairway Bentgrass [1, 10] | Quality Rating - Fairway Bentgrass [1, 11] | Quality Rating - Fairway Bentgrass [1, 12] | Quality Rating - Fairway Bentgrass [1, 13] | Quality Rating - Fairway Bentgrass [1, 14] | Density Rating - Kentucky Bluegrass [2, 15] | Density Rating - Kentucky Bluegrass [2, 16] | Density Rating - Kentucky Bluegrass [2, 17]
NC(N)=O [Urea, urea, reference compound] | 6.7a | 6.7ab | 6.0 | 7.0a | 7.0a | 7.0a | 6.7 | 7.0a | 6.3a | 7.0a | 6.0 | 7.0a | 5.0de | 5.3cde | 7.0ab
Cl.NCCCC[C@H](N)C(=O)O [Lys (HCl) 15% N, L-lysine monohydrochloride] | 6.3a | 6.0ab | 6.0 | 7.0a | 7.0a | 7.0a | 5.7 | 7.0a | 7.0a | 6.7ab | 5.7 | 7.0a | 5.3cde | 6.3abc | 7.0ab
